Earlier results in PMC11208559 (Scientific Reports, 2024).

Settings: cited from earlier work

C=CCNC1=C2C[C@@H](C)C[C@H](OC)[C@H](O)[C@@H](C)/C=C(\C)[C@H](OC(N)=O)[C@@H](OC)/C=C\C=C(/C)C(=O)NC(=CC1=O)C2=O [17-AAG]
tolerability in clinical trials: liver toxicity
